From PubChem BioAssay AID294 (DTP/NCI, 2004)
“And” between values parts separate entries of the source, which are not always exact repeats. Equal entries are not always repeated.

System: MX-1 breast xenograft, nude mice, tumor weight change
Assay: NCI In Vivo Anticancer Drug Screen. Data for tumor model Human Mammary Carcinoma MX-1 Xenograft (subcutaneous) in NU/NU Swiss (nude) mice
Conditions: endpoint: optimum tumor weight change, schedule: Q04DX003 (ip), higher = larger tumour
Method: The antitumor activity of compounds was measured in mice bearing transplantable tumors. Survival or tumor size were measured and the results are expressed as the measurement made in the treated group (T) divided by the measurement made in the vehicle treated control group (C). The tumor model used in this assay is Human Mammary Carcinoma MX-1 Xenograft (subcutaneous) in NU/NU Swiss (nude) mice

[1] = dose: 100.0 mg/kg/injection, vehicle: suspension in saline
[2] = dose: 200.0 mg/kg/injection, vehicle: suspension in saline
[3] = dose: 400.0 mg/kg/injection, vehicle: suspension in saline
[4] = dose: 800.0 mg/kg/injection, vehicle: suspension in saline

Compound: C=CC(=O)NCNC(=O)C=C
- T/C [1]: 101 % of control
- T/C [2]: 84 % of control

Compound: N=c1ccn2c(n1)OC1C(O)C(CO)OC12 (configuration not stated)
- T/C [2]: 65 % of control
- T/C [3]: 65 % of control
- T/C [4]: 47 % of control

Compound: N=C(N)Sc1ccccn1
- T/C (dose: 50.0 mg/kg/injection, vehicle: saline): 106 % of control
- T/C (dose: 100.0 mg/kg/injection, vehicle: saline): 77 % of control
- T/C (dose: 200.0 mg/kg/injection, vehicle: saline): 60 % of control

Compound: Cc1cc(N(CC(C)Br)CC(C)Br)ccc1N=Nc1ccccc1C(=O)O (configuration not stated)
- T/C (dose: 3.13 mg/kg/injection, vehicle: saline with Tween-80): 75 % of control
- T/C (dose: 6.25 mg/kg/injection, vehicle: saline with Tween-80): 73 % of control
- T/C (dose: 12.5 mg/kg/injection, vehicle: saline with Tween-80): 61 % of control

Compound: COC1C(C)OC(OC2CC(C)(O)Cc3cc4c(c(O)c32)C(=O)c2c(O)cc3c(c2C4=O)OC2OC3(C)C(O)C(N(C)C)C2O)C(OC)C1(C)OC (configuration not stated)
- T/C (dose: 5.0 mg/kg/injection, vehicle: Klucel (hydroxypropylcellulose) (HPC)): 204 % of control
- T/C (dose: 10.0 mg/kg/injection, vehicle: Klucel (hydroxypropylcellulose) (HPC)): 207 % of control

Compound: CC(C)=CCNc1ncnc2c1ncn2C1OC(CO)C(O)C1O (configuration not stated)
- T/C [2]: 39 % of control
- T/C [3]: 77 % of control

Compound: CN(C)N=Nc1cccc(C(N)=O)c1
- T/C (dose: 50.0 mg/kg/injection, vehicle: Klucel (hydroxypropylcellulose) (HPC)): 102 % of control
- T/C (dose: 100.0 mg/kg/injection, vehicle: Klucel (hydroxypropylcellulose) (HPC)): 87 % of control
- T/C (dose: 400.0 mg/kg/injection, vehicle: Klucel (hydroxypropylcellulose) (HPC)): 81 % of control

Compound: Cc1c(N)nc([C@H](CC(N)=O)NC[C@H](N)C(N)=O)nc1C(=O)N[C@H](C(=O)N[C@H](C)[C@@H](O)[C@H](C)C(=O)N[C@H](C(=O)NCCc1nc(-c2nc(C(=O)NCCC[S+](C)C)cs2)cs1)[C@@H](C)O)C(OC1OC(CO)C(O)C(O)C1OC1OC(CO)C(O)C(OC(N)=O)C1O)c1cnc[nH]1 (some centres not stated)
- T/C (dose: 3.75 mg/kg/injection, vehicle: saline): 52 % of control
- T/C (dose: 4.0 mg/kg/injection, vehicle: saline): 55 % of control
- T/C (dose: 7.5 mg/kg/injection, vehicle: saline): 40 % of control and 41 % of control
- T/C (dose: 8.0 mg/kg/injection, vehicle: saline): 55 % of control and 67 % of control
- T/C (dose: 15.0 mg/kg/injection, vehicle: saline): 31 % of control (2×) and 39 % of control
- T/C (dose: 16.0 mg/kg/injection, vehicle: saline): 32 % of control and 39 % of control
- T/C (dose: 30.0 mg/kg/injection, vehicle: saline): 17 % of control and 21 % of control and 25 % of control
- T/C (dose: 32.0 mg/kg/injection, vehicle: saline): 15 % of control and 22 % of control and 27 % of control
- T/C (dose: 60.0 mg/kg/injection, vehicle: saline): 13 % of control and 21 % of control
- T/C (dose: 64.0 mg/kg/injection, vehicle: saline): 16 % of control and 27 % of control

Compound: ClCC[N+]12CC[N+](CCCl)(CC1)C2
- T/C (dose: 100.0 mg/kg/injection, vehicle: saline with Tween-80): 60 % of control
- T/C (dose: 200.0 mg/kg/injection, vehicle: saline with Tween-80): 56 % of control
- T/C (dose: 200.0 mg/kg/injection, vehicle: water): 51 % of control
- T/C (dose: 400.0 mg/kg/injection, vehicle: saline with Tween-80): 59 % of control
- T/C (dose: 400.0 mg/kg/injection, vehicle: water): 53 % of control
- T/C (dose: 800.0 mg/kg/injection, vehicle: saline with Tween-80): 31 % of control
- T/C (dose: 1600.0 mg/kg/injection, vehicle: saline with Tween-80): 28 % of control

Compound: CC(=O)OCC1OC(n2ccc(N)nc2=O)C(OC(C)=O)C1OC(C)=O (configuration not stated)
- T/C [1]: 60 % of control
- T/C [2]: 62 % of control
- T/C [3]: 39 % of control
- T/C [4]: 39 % of control

Compound: OCC1OC(n2cnc3c2NC=NC[C@H]3O)CC1O (some centres not stated)
- T/C (dose: 4.0 mg/kg/injection, vehicle: water): 77 % of control
- T/C (dose: 8.0 mg/kg/injection, vehicle: water): 78 % of control
- T/C (dose: 16.0 mg/kg/injection, vehicle: water): 49 % of control
